Assay results as given in patent US10738028B2, “Spiro three-membered ring, spiro five-membered ring peptide deformylase inhibitor and use thereof in antibacteria and anti-tumor” (priority 2016, dated 2020).
Converted amounts (≈) assume the structure as drawn.

What was measured:
Assay type in all cases: cell-based
[1] = test system: Escherichia coli (including ESBLs, non-ESBLs); assay: MIC, two-fold agar dilution (CLSI), clinical isolates
Text: (§1) 1. The invention adopts the two-fold agar dilution method recommended by the operating procedure of antimicrobial susceptibility testing set by American Clinical and Laboratory Standards Institute (CLSI) to determine the Minimum Inhibitory Concentration (MIC) of the test samples against the tested strains.

[2] = test system: Streptococcus pneoumoniae (SPN); assay: as above
Text: as §1

[3] = test system: Enterococcus faecium (EFM); assay: as above
Text: as §1

[4] = test system: Moraxella catarrhalis (BCA); assay: as above
Text: as §1

[5] = test system: Enterococcus faecalis (EFA); assay: as above
Text: as §1

[6] = test system: methicillin-resistant Staphylococcus aureus (MRSA); assay: as above
Text: as §1

[7] = test system: methicillin-resistant Staphylococcus epidermidis (MRSE); assay: as above
Text: as §1

[8] = test system: methicillin-sensitive Staphylococcus aureus (MSSA); assay: as above
Text: as §1

[9] = test system: methicillin-sensitive Staphylococcus epidermidis (MSSE); assay: as above
Text: as §1

[10] = test system: HCT-116 colorectal cancer cell line; assay: CCK-8 proliferation inhibition; conditions: Homo sapiens, HCT-116, 72 h, concentration of 30 μM; 72 hours; CCK-8; read-out: HCT116 inhibition rate/%
Procedure: (1) HCT-116 colorectal cancer cell line, A549 lung cancer cell line, MGC-803 gastric cancer cell line, BEL-7402 liver cancer cell line, Jurkat T cell leukemia cell line, HL60 acute myeloid leukemia cell line, Hela cervical cancer cell line, MCF-7 breast cancer cell line, PC3 prostate cancer cell line and SAOS-2 osteosarcoma cell line were made into single cell suspension, 180 μL of which was inoculated into 96-well culture plate, which was cultured overnight in CO2 incubator (37° C., 5% CO2, 95% air).
(2) Each of the spiro three-membered ring, spiro five membered ring peptide deformylase inhibitors was dissolved in DMSO, and was further formulated into drug solution with required different final concentration using corresponding cell culture medium. The drug solutions were added to the above cells respectively (20 μL/well), with the control group added with 1‰ DMSO, and cultured in a CO2 incubator for 72 hours.
(3) After incubation for 72 hours, the culture solution was decanted, and 100 μL of 1:10 diluted CCK-8 solution was added.
Wherein, in step (1), the concentration of the single cell suspension was 2000 cells/well.
Wherein, in step (2), HCT-116 cells were cultured in McCoy's 5A medium (containing 10% newborn bovine serum, 1% double antibody); A549 and PC3 cells were cultured in F12 medium (containing 10% newborn bovine serum, 1% double antibody); MGC-803, BEL-7402, SAOS-2, Jurkat and HL60 cells were cultured in 1640 medium (containing 10% newborn bovine serum, 1% double antibody); and MCF-7 and Hela cells were cultured in DMEM high glucose medium (containing 10% newborn bovine serum, 1% double antibody).

CCCC[C@H](CN(O)C=O)C(=O)N1CC2(CC2)C[C@H]1C(=O)Nc1cnccn1 [Example 15] gave an MIC (anti-bacterial activity) ([1]; strain ECO+ 15-1) of 32 µg/mL (≈ 82.2 µM), an MIC (anti-bacterial activity) ([1]; strain ECO+ 15-2) of 64 µg/mL (≈ 164 µM) and an MIC (anti-bacterial activity) ([1]; strain ECO+ 15-3) of 32 µg/mL (≈ 82.2 µM). It also gave an MIC (anti-bacterial activity) ([1]; strain ECO+ 15-4) of 32 µg/mL (≈ 82.2 µM), an MIC (anti-bacterial activity) ([1]; strain ECO− 15-1) of 32 µg/mL (≈ 82.2 µM) and an MIC (anti-bacterial activity) ([1]; strain ECO− 15-2) of 64 µg/mL (≈ 164 µM). The MIC (anti-bacterial activity) ([1]; strain ECO− 15-3) was 64 µg/mL (≈ 164 µM), the MIC (anti-bacterial activity) ([1]; strain ECO− 15-4) was 64 µg/mL (≈ 164 µM) and the MIC (anti-bacterial activity) ([2]; strain SPN 16-2) was 0.015 µg/mL (≈ 0.0385 µM). It also gave an MIC (anti-bacterial activity) ([2]; strain SPN 16-4) of 0.5 µg/mL (≈ 1.28 µM), an MIC (anti-bacterial activity) ([3]; strain EFM 15-1) of 1 µg/mL (≈ 2.57 µM) and an MIC (anti-bacterial activity) ([3]; strain EFM 15-2) of 1 µg/mL (≈ 2.57 µM). It also gave an MIC (anti-bacterial activity) ([3]; strain EFM 15-3) of 0.125 µg/mL (≈ 0.321 µM), an MIC (anti-bacterial activity) ([3]; strain EFM 15-4) of 1 µg/mL (≈ 2.57 µM) and an MIC (anti-bacterial activity) ([3]; strain EFM 15-5) of 0.125 µg/mL (≈ 0.321 µM). The MIC (anti-bacterial activity) ([3]; strain EFM 15-6) was 1 µg/mL (≈ 2.57 µM), the MIC (anti-bacterial activity) ([4]; strain BCA 14-1) was 0.5 µg/mL (≈ 1.28 µM) and the MIC (anti-bacterial activity) ([4]; strain BCA 14-4) was 0.5 µg/mL (≈ 1.28 µM). It also gave an MIC (anti-bacterial activity) ([4]; strain BCA 14-5) of 0.125 µg/mL (≈ 0.321 µM), an MIC (anti-bacterial activity) ([4]; strain BCA 14-6) of 1 µg/mL (≈ 2.57 µM) and an MIC (anti-bacterial activity) ([4]; strain BCA 14-7) of 0.125 µg/mL (≈ 0.321 µM). It also gave an MIC (anti-bacterial activity) ([4]; strain BCA 14-8) of 0.5 µg/mL (≈ 1.28 µM), an MIC (anti-bacterial activity) ([4]; strain BCA 14-10) of 0.125 µg/mL (≈ 0.321 µM) and an MIC (anti-bacterial activity) ([5]; strain EFA 15-1) of 1 µg/mL (≈ 2.57 µM). The MIC (anti-bacterial activity) ([5]; strain EFA 15-2) was 1 µg/mL (≈ 2.57 µM), the MIC (anti-bacterial activity) ([5]; strain EFA 15-3) was 1 µg/mL (≈ 2.57 µM) and the MIC (anti-bacterial activity) ([5]; strain EFA 15-4) was 1 µg/mL (≈ 2.57 µM). The MIC (anti-bacterial activity) ([5]; strain EFA 15-5) was 4 µg/mL (≈ 10.3 µM), the MIC (anti-bacterial activity) ([5]; strain EFA 15-6) was 4 µg/mL (≈ 10.3 µM) and the MIC (anti-bacterial activity) ([5]; strain EFA 15-9) was 1 µg/mL (≈ 2.57 µM). It also gave an MIC (anti-bacterial activity) ([6]; strain MRSA 15-1) of 0.125 µg/mL (≈ 0.321 µM), an MIC (anti-bacterial activity) ([6]; strain MRSA 15-2) of 0.25 µg/mL (≈ 0.642 µM) and an MIC (anti-bacterial activity) ([6]; strain MRSA 15-3) of 0.125 µg/mL (≈ 0.321 µM). The MIC (anti-bacterial activity) ([6]; strain MRSA 15-4) was 0.25 µg/mL (≈ 0.642 µM), the MIC (anti-bacterial activity) ([7]; strain MRSE 15-1) was 0.125 µg/mL (≈ 0.321 µM) and the MIC (anti-bacterial activity) ([7]; strain MRSE 15-2) was 0.25 µg/mL (≈ 0.642 µM). For the same molecule, the MIC (anti-bacterial activity) ([7]; strain MRSE 15-3) was 0.25 µg/mL (≈ 0.642 µM), the MIC (anti-bacterial activity) ([7]; strain MRSE 15-7) was 0.25 µg/mL (≈ 0.642 µM) and the MIC (anti-bacterial activity) ([8]; strain MSSA 15-3) was 0.25 µg/mL (≈ 0.642 µM). The MIC (anti-bacterial activity) ([8]; strain MSSA 15-4) was 0.125 µg/mL (≈ 0.321 µM), the MIC (anti-bacterial activity) ([8]; strain MSSA 15-5) was 0.125 µg/mL (≈ 0.321 µM) and the MIC (anti-bacterial activity) ([8]; strain MSSA 15-6) was 0.125 µg/mL (≈ 0.321 µM). It also gave an MIC (anti-bacterial activity) ([9]; strain MSSE 15-3) of 0.25 µg/mL (≈ 0.642 µM), an MIC (anti-bacterial activity) ([9]; strain MSSE 15-4) of 0.06 µg/mL (≈ 0.154 µM) and an MIC (anti-bacterial activity) ([9]; strain MSSE 15-5) of 0.06 µg/mL (≈ 0.154 µM). The MIC (anti-bacterial activity) ([9]; strain MSSE 15-6) was 0.06 µg/mL (≈ 0.154 µM) and the inhibition at 30 µM [10] was 24%.

Work on CCCC[C@H](CN(O)C=O)C(=O)N1CC2(CC2)C[C@H]1C(=O)Nc1ccncn1 [Example 16, (S)-5-((R)-2-((N-hydroxyformamido)methyl)hexanoyl)-N-(pyrimidin-4-yl)-5-spiro[2.4]heptane-6-carboxamide] yielded an MIC (anti-bacterial activity) ([1]; strain ECO+ 15-1) of 32 µg/mL (≈ 82.2 µM), an MIC (anti-bacterial activity) ([1]; strain ECO+ 15-2) of over 32 µg/mL and an MIC (anti-bacterial activity) ([1]; strain ECO+ 15-3) of over 32 µg/mL. For the same molecule, the MIC (anti-bacterial activity) ([1]; strain ECO+ 15-4) was over 32 µg/mL, the MIC (anti-bacterial activity) ([1]; strain ECO− 15-1) was 32 µg/mL (≈ 82.2 µM) and the MIC (anti-bacterial activity) ([1]; strain ECO− 15-2) was over 32 µg/mL. For the same molecule, the MIC (anti-bacterial activity) ([1]; strain ECO− 15-3) was over 32 µg/mL, the MIC (anti-bacterial activity) ([1]; strain ECO− 15-4) was over 32 µg/mL and the MIC (anti-bacterial activity) ([2]; strain SPN 16-2) was 4 µg/mL (≈ 10.3 µM). For the same molecule, the MIC (anti-bacterial activity) ([2]; strain SPN 16-4) was 0.25 µg/mL (≈ 0.642 µM), the MIC (anti-bacterial activity) ([3]; strain EFM 15-1) was 0.5 µg/mL (≈ 1.28 µM) and the MIC (anti-bacterial activity) ([3]; strain EFM 15-2) was 1 µg/mL (≈ 2.57 µM). For the same molecule, the MIC (anti-bacterial activity) ([3]; strain EFM 15-3) was 0.25 µg/mL (≈ 0.642 µM), the MIC (anti-bacterial activity) ([3]; strain EFM 15-4) was 2 µg/mL (≈ 5.14 µM) and the MIC (anti-bacterial activity) ([3]; strain EFM 15-5) was 0.25 µg/mL (≈ 0.642 µM). The MIC (anti-bacterial activity) ([3]; strain EFM 15-6) was 2 µg/mL (≈ 5.14 µM), the MIC (anti-bacterial activity) ([4]; strain BCA 14-1) was 0.5 µg/mL (≈ 1.28 µM) and the MIC (anti-bacterial activity) ([4]; strain BCA 14-4) was 1 µg/mL (≈ 2.57 µM). The MIC (anti-bacterial activity) ([4]; strain BCA 14-5) was 0.25 µg/mL (≈ 0.642 µM), the MIC (anti-bacterial activity) ([4]; strain BCA 14-6) was 1 µg/mL (≈ 2.57 µM) and the MIC (anti-bacterial activity) ([4]; strain BCA 14-7) was 0.25 µg/mL (≈ 0.642 µM). The MIC (anti-bacterial activity) ([4]; strain BCA 14-8) was 0.25 µg/mL (≈ 0.642 µM), the MIC (anti-bacterial activity) ([4]; strain BCA 14-10) was 0.25 µg/mL (≈ 0.642 µM) and the MIC (anti-bacterial activity) ([5]; strain EFA 15-1) was 4 µg/mL (≈ 10.3 µM). For the same molecule, the MIC (anti-bacterial activity) ([5]; strain EFA 15-2) was 4 µg/mL (≈ 10.3 µM), the MIC (anti-bacterial activity) ([5]; strain EFA 15-3) was 0.25 µg/mL (≈ 0.642 µM) and the MIC (anti-bacterial activity) ([5]; strain EFA 15-4) was 4 µg/mL (≈ 10.3 µM). The MIC (anti-bacterial activity) ([5]; strain EFA 15-5) was 4 µg/mL (≈ 10.3 µM), the MIC (anti-bacterial activity) ([5]; strain EFA 15-6) was 4 µg/mL (≈ 10.3 µM) and the MIC (anti-bacterial activity) ([5]; strain EFA 15-9) was 4 µg/mL (≈ 10.3 µM). It also gave an MIC (anti-bacterial activity) ([6]; strain MRSA 15-1) of 0.06 µg/mL (≈ 0.154 µM), an MIC (anti-bacterial activity) ([6]; strain MRSA 15-2) of 0.25 µg/mL (≈ 0.642 µM) and an MIC (anti-bacterial activity) ([6]; strain MRSA 15-3) of 0.25 µg/mL (≈ 0.642 µM). It also gave an MIC (anti-bacterial activity) ([6]; strain MRSA 15-4) of 1 µg/mL (≈ 2.57 µM), an MIC (anti-bacterial activity) ([7]; strain MRSE 15-1) of 0.06 µg/mL (≈ 0.154 µM) and an MIC (anti-bacterial activity) ([7]; strain MRSE 15-2) of 1 µg/mL (≈ 2.57 µM). The MIC (anti-bacterial activity) ([7]; strain MRSE 15-3) was 0.25 µg/mL (≈ 0.642 µM), the MIC (anti-bacterial activity) ([7]; strain MRSE 15-7) was 0.25 µg/mL (≈ 0.642 µM) and the MIC (anti-bacterial activity) ([8]; strain MSSA 15-3) was 1 µg/mL (≈ 2.57 µM). For the same molecule, the MIC (anti-bacterial activity) ([8]; strain MSSA 15-4) was 0.25 µg/mL (≈ 0.642 µM), the MIC (anti-bacterial activity) ([8]; strain MSSA 15-5) was 0.125 µg/mL (≈ 0.321 µM) and the MIC (anti-bacterial activity) ([8]; strain MSSA 15-6) was 1 µg/mL (≈ 2.57 µM). It also gave an MIC (anti-bacterial activity) ([9]; strain MSSE 15-3) of 1 µg/mL (≈ 2.57 µM), an MIC (anti-bacterial activity) ([9]; strain MSSE 15-4) of 0.06 µg/mL (≈ 0.154 µM) and an MIC (anti-bacterial activity) ([9]; strain MSSE 15-5) of 0.06 µg/mL (≈ 0.154 µM). The MIC (anti-bacterial activity) ([9]; strain MSSE 15-6) was 0.06 µg/mL (≈ 0.154 µM) and the inhibition at 30 µM [10] was 24%.
